According to paper PMC5090206, “Fluselenamyl: A Novel Benzoselenazole Derivative for PET Detection of Amyloid Plaques (Aβ) in Alzheimer’s Disease” (Scientific Reports, 2016):

Target: Aβ plaques (Homo sapiens, UniProt P05067)
Assay: Real time multiphoton imaging in APP+/−/PS1+/− mice
Type: in vivo
Conditions: 2 mg/kg intravenous
Description: For assessing viability of molecules as imaging probes in vivo[48], various imaging modalities, such as nuclear imaging (PET/SPECT), optical imaging, and MRI have been used to investigate simultaneously distribution kinetics and target-receptor specificity. While the resolution of PET and MRI allow in vivo imaging at relatively moderate resolution, the multiphoton microscopy enables evaluation of kinetics at a sub-micrometer resolution[49]. […] The generation of various transgenic (tg) animals overexpressing mutant human APP and/or PS1 and PS2, tg APP mice expressing ApoE isoforms including those for Tau offer attractive models for unravelling biochemical pathways prevalent in pathophysiology of AD[50]. […] Literature precedents indicate Aβ deposition by 2 months of age, with gradual quantitative increase at six months^55. […] Compared with barely detectable auto-fluorescence levels prior to imaging transgenic APP^+/−/PS1^+/− mice (Fig. 8, first panel), bright fluorescence appeared almost instantaneously following administration of 5. Fluorescence first appeared in large and small blood vessels within the brain. Within minutes (10 min), the brain parenchyma was uniformly bright in fluorescence, and Aβ deposits were labeled. […]
For imaging 5 labeled plaques, two-photon fluorescence was generated with 800 nm excitation, and fluorescent emission was detected in the range of 435-485nm. […]

Sequence of Aβ plaques (P05067 672-711 limits assumed): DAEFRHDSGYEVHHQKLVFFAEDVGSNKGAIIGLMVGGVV

In the case of `CN(C)c1ncc(/C=C\c2nc3cc(OCCF)ccc3[se]2)cn1` [compound 5, (Z)-5-(2-(5-(2-fluoroethoxy)benzo[d][1,3]selenazol-2-yl)vinyl)-N,N-dimethylpyrimidin-2-amine], the “time at which labeling of parenchymal plaques peaked” value is reported as “approximately 10 min”.
